From EP3036295B1, “OFFSET PRINTING INKS COMPRISING AN ISOSORBIDE FATTY ACID ESTER SOLVENT” (OLEON NV, priority 2013, dated 2015)

How the values were obtained:
[1] = test system: bacteria, fungi and yeasts; conditions: WO 2013/017257 A1; cited from earlier work
[2] = Surface tension, Du Noüy ring method; type: physicochemical
Protocol: The surface tension was measured using the Du Noüy ring method (http://www.kruss.de/en/theory/measurements/surface-tension/ring-method.html. The surface or interfacial tension is measured with the help of an optimally wettable ring suspended from a precision balance. A height-adjustable sample carrier is used to bring the liquid to be measured into contact with the probe. A force acts on the balance as soon as the probe touches the surface. If the length of the probe is known (circumference of ring or length of plate) the force measured can be used to calculate the interfacial or surface tension. A further requirement is that the probe must have a very high surface energy. This is why a platinum-iridium alloy is used for the ring and roughened platinum for the plate.
The liquid is raised until contact with the surface is registered. The sample is then lowered again so that the liquid film produced beneath the ring is stretched. As the film is stretched a maximum force is experienced; this is recorded in the measurement. At the maximum the force vector is exactly parallel to the direction of motion; at this moment the contact angle θ is 0°. In practice the distance is first increased until the area of maximum force has been passed through. The sample vessel containing the liquid is then moved back so that the maximum point is passed through a second time. The maximum force is only determined exactly on this return movement and used to calculate the tension. The calculation is made according to the following equation: σ = (Fmax −FV)/(L⋅cosθ) [formula] (σ =surface or interfacial tension; Fmax=maximum force; FV=weight of volume of liquid lifted; L=wetted length, θ=contact angle) The contact angle θ decreases as the extension increases and has the value 0° at the point of maximum force, this means that the term cos θ has the value 1.

[3] = Kauri butanol value (solvent power), ASTM D1133; type: physicochemical; conditions: Table 2, comparison with conventional solvents
From the text: The "Kb value" is a measure of solvent power, and may be determined using the standardized test ASTM D1133. A high Kb value is an indication that the isosorbide ester is more capable in dissolving a wide range of resins of varying nature, and in higher concentrations, as compared to existing solvents used in offset printing inks. This is important as offset inks usually contain besides one or more pigments, approximately 40-65 wt. % of resin binders, for example rosin resins, maleic resins, hydrocarbon resins and alkyd resins, to ensure formation of a polymer film which binds the pigments or dyes together and provides resistance properties. Such resin binders are usually absent in inkjet printing inks. The offset printing ink may further comprise approximately 3 - 6 wt. % of additives, for example waxes, siccative agents and/or inhibitors. Without wanting to be bound by this theory, the applicants believe that this advantageous combination of properties, i.e. high wetting power of the pigments and high Kb value associated with good dissolution properties for the resin component present in the offset ink, must be attributed to the structure of the isosorbide moiety in the ester molecule. […]
In addition the inventors have observed that the Kb value may further be tuned by varying the nature of the carboxylic acid of the isosorbide ester and/or by varying the degree of esterification, in order to provide an ester with good solvent properties or an ester which functions much more as a diluent for the other components present in a formulation. […] Kauri resin is readily soluble in 1-butanol but is not soluble in many other solvents. […] Better solvents, for example toluene, may be added up to larger quantities before the solution becomes cloudy, and thus have a high Kauri butanol value. Weaker solvents like hexane may only be added in smaller quantities and will have a small Kauri butanol value. The Kauri butanol value (Kb value) is usually determined according to ASTM D1133 standardized test. […]

Compound | antimicrobial activity [1] | Surface tension Du Noüy ring method [2] [mN/m] | Kauri butanol ASTM D 1133 [3]
isosorbide dicaprylate | isosorbide itself, nor the dicaprylate, exhibit any such activity | – | –
isosorbide monocaprylate | responsible for the antimicrobial activity observed | – | –
O[C@@H]1CO[C@H]2[C@@H]1OC[C@@H]2O [isosorbide, Isosorbide] | isosorbide itself, nor the dicaprylate, exhibit any such activity | – | –
Cc1ccccc1 [Toluene] | – | 29 | 105
Xylene | – | 29 | 90
C=C(C)[C@H]1CC=C(C)CC1 [D-limonene] | – | 25 | 67
